The record followed here is ChEMBL document CHEMBL1201862, “PubChem BioAssay data set” (2004).

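Following 48 hours of exposure in 96-well plates, responses at five concentrations were used to interpolate endpoints linearly. Here, GI50 denotes the concentration required for 50% inhibition of growth.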 The source made the active and inactive calls. Rule as the data show it: active = GI50 up to about 1.1 µM and inactive = higher.

Test systems include A498; A549; HCT-15; HL-60; IGROV-1; MCF7; MDA-MB-231; Malme-3M; NCI/ADR-RES; PC-3; SF-539; SK-MEL-2; SK-OV-3; SN12C; TK-10; U-251; K562; UO-31; NCI-H226.
Holding throughout (experiment): inhibition of tumour cell growth, NCI panel, 48 h

Turning to `CCC1C(C#N)=C(N)OC2=C1C(=O)CC(C)(C)C2` (stereo not given), the GI50 in the assay on A498 was > 100 µM (inactive); in the assay with A549, > 100 µM (inactive); in the assay with HCT-15, more than 100 µM; in the assay with HL-60, > 100 µM (inactive); with IGROV-1, > 100 µM (inactive); with MCF7, > 100 µM (inactive). Besides, the GI50 with MDA-MB-231, with Malme-3M, in the assay on NCI/ADR-RES, in the assay on PC-3, with SF-539 and with SK-MEL-2 was > 100 µM (inactive) in each case. The GI50 with SK-OV-3, in the assay on SN12C, in the assay on TK-10 and in the assay on U-251 was > 100 µM (inactive) each time.

With `c1ccc2sc(SCCSc3nc4ccccc4s3)nc2c1`, the GI50 in the assay on A498 was > 100 µM (inactive); in the assay on A549, > 100 µM (inactive); with HCT-15, more than 100 µM; in the assay on HL-60, 65.8 µM (inactive); in the assay on IGROV-1, > 100 µM (inactive); in the assay on K562, > 100 µM (inactive). Also, the GI50 with MCF7, in the assay with MDA-MB-231, in the assay on Malme-3M, in the assay on NCI/ADR-RES, with PC-3 and in the assay with SK-MEL-2 was > 100 µM (inactive) in each case. Moreover, the GI50 in the assay with SK-OV-3, in the assay on SN12C, in the assay on TK-10, in the assay on U-251 and in the assay with UO-31 was > 100 µM (inactive) each time.

Regarding `O=c1oc2ccccc2cc1-c1cc2ccccn2c1`, the GI50 with A498 was > 100 µM (inactive); in the assay on A549, > 100 µM (inactive); in the assay with HCT-15 it was more than 100 µM; in the assay with HL-60 it was > 100 µM (inactive); with IGROV-1 it was > 100 µM (inactive); with K562 it was > 100 µM (inactive). Also, the GI50 was 0.5 µM (active) in the assay on MCF7; > 100 µM (inactive) in the assay with MDA-MB-231; > 100 µM (inactive) with NCI-H226; > 100 µM (inactive) with NCI/ADR-RES; > 100 µM (inactive) in the assay with PC-3; > 100 µM (inactive) in the assay with SK-MEL-2. For the same compound, the GI50 in the assay with SK-OV-3, in the assay on TK-10, with U-251 and with UO-31 was > 100 µM (inactive) throughout.

With `O=C(O)CSCC(=O)Nc1ccc2cccc3c2c1CC3`, the GI50 in the assay with A498 is > 100 µM (inactive); with A549, > 100 µM (inactive); in the assay on HCT-15, more than 100 µM; with HL-60, > 100 µM (inactive); in the assay with IGROV-1 it was > 100 µM (inactive); with K562 it was > 100 µM (inactive). In addition, the GI50 with MCF7 is 97.1 µM (inactive); in the assay with MDA-MB-231, > 100 µM (inactive); with Malme-3M, > 100 µM (inactive); with NCI/ADR-RES, > 100 µM (inactive); in the assay on PC-3, > 100 µM (inactive); in the assay on SF-539, > 100 µM (inactive). In addition, the GI50 in the assay with SK-MEL-2, with SN12C, in the assay on TK-10, in the assay with U-251 and in the assay on UO-31 was > 100 µM (inactive) in each case.

For the compound `Sc1nnc(CCCCCCCCc2nnc(S)o2)o1`, the GI50 with A498 was > 100 µM (inactive); with A549 it was > 100 µM (inactive); with HCT-15, more than 100 µM; with HL-60 it was > 100 µM (inactive); with IGROV-1 it was > 100 µM (inactive); in the assay on K562, > 100 µM (inactive). Moreover, the GI50 in the assay with MCF7, with MDA-MB-231, with NCI-H226, in the assay with NCI/ADR-RES, in the assay on PC-3 and in the assay with SF-539 was > 100 µM (inactive) in each case. In addition, the GI50 in the assay with SK-MEL-2, in the assay with SK-OV-3, with SN12C, with TK-10, with U-251 and in the assay with UO-31 was > 100 µM (inactive) each time.

`O=C1CC(c2ccco2)C2(C(=O)NC(=O)NC2=O)C(c2ccco2)C1` (stereo not given): the GI50 in the assay with A498 was > 75 µM (inactive); in the assay on A549, > 75 µM (inactive); in the assay on HCT-15 it was more than 75 µM; with HL-60, > 75 µM (inactive); with IGROV-1, > 75 µM (inactive); with K562, > 75 µM (inactive). Moreover, the GI50 with MCF7, with MDA-MB-231, in the assay with Malme-3M, in the assay on NCI/ADR-RES, with PC-3 and with SF-539 was > 75 µM (inactive) each time. The GI50 in the assay with SK-MEL-2, with SK-OV-3, in the assay with SN12C, with TK-10, in the assay with U-251 and in the assay on UO-31 was > 75 µM (inactive) in each case.

For the compound `O=C1NC(=O)C(C(c2ccc(Cl)cc2)C2C(=O)NC(=O)NC2=O)C(=O)N1.c1ccncc1`, the GI50 in the assay on A498 is > 100 µM (inactive); in the assay with A549, > 100 µM (inactive); in the assay on HCT-15 it was more than 100 µM; in the assay on HL-60, > 100 µM (inactive); in the assay on IGROV-1 it was > 100 µM (inactive); in the assay on K562 it was > 100 µM (inactive). Further, the GI50 in the assay with MCF7, in the assay with MDA-MB-231, with Malme-3M, in the assay on NCI-H226, in the assay with NCI/ADR-RES and in the assay with PC-3 was > 100 µM (inactive) each time. Further, the GI50 in the assay with SK-MEL-2, in the assay on SN12C, with TK-10, in the assay with U-251 and in the assay on UO-31 was > 100 µM (inactive) in each case.

Regarding `C#C[C@]1(O)CC[C@H]2[C@@H]3CCC4=C/C(=N/OC(=O)c5cccc6cc7ccccc7nc56)CC[C@@H]4[C@H]3CC[C@@]21CC`, the GI50 with A498 is > 100 µM (inactive); with A549 it was > 100 µM (inactive); in the assay on HCT-15, more than 100 µM; in the assay on HL-60 it was > 100 µM (inactive); with IGROV-1, > 100 µM (inactive); with K562, > 100 µM (inactive). Moreover, the GI50 with MCF7 is 76 µM (inactive); in the assay with MDA-MB-231 it was > 100 µM (inactive); in the assay on NCI-H226 it was > 100 µM (inactive); with NCI/ADR-RES, > 100 µM (inactive); in the assay with PC-3 it was > 100 µM (inactive); in the assay on SF-539 it was > 100 µM (inactive). The GI50 in the assay on SK-MEL-2, in the assay on SK-OV-3, in the assay with SN12C and with U-251 was > 100 µM (inactive) each time.

Take `COc1cc(-c2oc(/C=N/c3ccccc3)c([N+](=O)[O-])c2-c2ccc(O)c(OC)c2)ccc1O`: the GI50 is 39.2 µM (inactive) in the assay with A549; 14.4 µM in the assay on HCT-15; 0.412 µM (active) in the assay with HL-60; 15.4 µM (inactive) in the assay with IGROV-1; 36.1 µM (inactive) with K562; 23.9 µM (inactive) with MCF7. Besides, the GI50 in the assay on MDA-MB-231 is 27.5 µM (inactive); with NCI-H226, 26.9 µM (inactive); in the assay with NCI/ADR-RES, 22.8 µM (inactive); in the assay on PC-3 it was 18.7 µM (inactive); with SF-539, 17.4 µM (inactive); in the assay with SK-MEL-2 it was 32.9 µM (inactive). Also, the GI50 is > 41.8 µM (inactive) in the assay on SK-OV-3; 27 µM (inactive) with SN12C; 18 µM (inactive) with TK-10; 23.4 µM (inactive) in the assay on U-251; 15.1 µM (inactive) in the assay on UO-31.

In the case of `O=C(O)/C=c1/c2ccccc2n2nc3ccccc3c12`, the GI50 is 22 µM (inactive) with A498; 38.2 µM (inactive) in the assay with A549; 26.8 µM in the assay with HCT-15; 34.1 µM (inactive) in the assay on HL-60; 31.4 µM (inactive) in the assay with IGROV-1; 36.6 µM (inactive) with K562. Also, the GI50 in the assay with MCF7 is 35.2 µM (inactive); in the assay on MDA-MB-231 it was 39.1 µM (inactive); in the assay on Malme-3M, 25.2 µM (inactive); in the assay with NCI/ADR-RES, 29.5 µM (inactive); with PC-3, > 100 µM (inactive); in the assay on SF-539 it was 19.8 µM (inactive). Besides, the GI50 with SK-MEL-2 is 39.7 µM (inactive); in the assay with SK-OV-3, 22.8 µM (inactive); in the assay on SN12C, 26.7 µM (inactive); in the assay with TK-10 it was 30.3 µM (inactive); in the assay on U-251 it was 33.6 µM (inactive); in the assay on UO-31 it was 37.6 µM (inactive).

Regarding `O=c1[nH]nc(Cc2ccccc2)n1/N=C/c1ccc(/C=N/n2c(Cc3ccccc3)n[nH]c2=O)cc1`, the GI50 is > 100 µM (inactive) in the assay with A498; > 100 µM (inactive) in the assay on A549; more than 100 µM with HCT-15; 40.5 µM (inactive) in the assay with HL-60; > 100 µM (inactive) with IGROV-1; 20.2 µM (inactive) with K562. For the same compound, the GI50 in the assay with MCF7 was > 100 µM (inactive); with MDA-MB-231 it was 38.8 µM (inactive); in the assay with Malme-3M it was > 100 µM (inactive); with NCI-H226, > 100 µM (inactive); with NCI/ADR-RES, > 100 µM (inactive); in the assay with PC-3 it was > 100 µM (inactive). Further, the GI50 in the assay with SK-MEL-2 was > 100 µM (inactive); with SN12C, > 100 µM (inactive); in the assay with TK-10, 54 µM (inactive); in the assay on U-251 it was 57.3 µM (inactive); with UO-31, > 100 µM (inactive).

On to `C=C(C)CCC(O)[C@](C)(O)[C@H]1[C@H](O)C[C@@]2(C)[C@@H]3CCc4c(cc(OC5OC(CO)C(O)C(O)C5O)c(O)c4C)C3(C)C(=O)C[C@]12C` (stereo not given in full), for which the GI50 is > 100 µM (inactive) in the assay with A498; > 100 µM (inactive) in the assay with A549; more than 100 µM in the assay on HCT-15; > 100 µM (inactive) in the assay with IGROV-1; > 100 µM (inactive) in the assay on K562; > 100 µM (inactive) in the assay with MCF7. Besides, the GI50 in the assay with MDA-MB-231, with Malme-3M, with NCI-H226, in the assay on NCI/ADR-RES, in the assay on PC-3 and in the assay on SF-539 was > 100 µM (inactive) throughout. For the same compound, the GI50 in the assay on SK-MEL-2, with SK-OV-3, with SN12C, in the assay with TK-10, in the assay with U-251 and with UO-31 was > 100 µM (inactive) in each case.
